Results from patent US6110955A, “Metabolically stabilized oxyalkylene esters and uses thereof” (Beacon Laboratories, Inc., priority 1997, dated 2000).

Columns and labels:
[1] = test system: human neuroblastoma cell lines; assay: Clonogenicity across the neuroblastoma cell lines (summary); assay type: cell-based
Protocol: (§1) Inhibition of cancer cell growth in agar culture--clonogenicity was tested using cell lines as follows:
(§2) Cells were harvested, washed in complete media, and counted.
(§3) After overnight culture, AB or α-methyl-4-(2-methylpropyl)-benzeneacetyloxymethyl butyrate was added at the indicated concentration. The control cells received media alone.

[2] = test system: β-globin disorders (β-thalassemia and sickle-cell anemia); details: β-thalassemia and sickle-cell anemia patients; cited from earlier work
CFPAC = assay: Inhibition of cancer cell growth, sulforhodamine B (SRB) method; assay type: cell-based; details: Homo sapiens
Protocol: (§4) Inhibition of cancer cell growth was measured by the sulforhodamine B (SRB) method as described by Monks et al., J. Nat. Canc. Inst., (1991), 83: 757-766, incorporated herein in its entirety. The SRB assay is recognized by the National Institute for Cancer (NCI) as a reliable screen for anticancer drugs and is used by the NCI for this purpose. […] (FIGS. 3A-3D).

MCF7 = assay: as above; assay type: cell-based; details: Homo sapiens
Protocol: as §4

LOX IMVI = assay: as above; assay type: cell-based; details: Homo sapiens
Protocol: as §4

OVCAR-5 = assay: as above; assay type: cell-based; details: Homo sapiens
Protocol: as §4

SK-N-SH = assay: Clonogenicity in soft agar (growth inhibition); assay type: cell-based, human; details: Homo sapiens, read-out: clones relative to media-treated control cultures
Protocol: as §1, §2, §3

IMR-32 = assay: Clonogenicity in soft agar (growth inhibition); assay type: cell-based, human; details: Homo sapiens, read-out: clones relative to media-treated control cultures
Protocol: as §1, §2, §3

NBAS-5 = assay: Clonogenicity in soft agar (growth inhibition); assay type: cell-based, human; details: Homo sapiens
Protocol: as §1, §2, §3

NBL-S = assay: Clonogenicity in soft agar (growth inhibition); assay type: cell-based, human; details: Homo sapiens
Protocol: as §1, §2, §3

CCCC(=O)O [AB, arginine butyrate, reference compound]
inhibition of clonogenicity (in words) [1]: dose-dependent manner | reported side effects [2]: hypokalemia, headache, nausea and vomiting | inhibition at 31.25 pM (CFPAC; dosage 0.03125 nM): 6.6% | inhibition at 62.5 pM (CFPAC; dosage 0.06250 nM): 4.8% | inhibition at 0.000125 µM (CFPAC; dosage 0.12500 nM): 11.3% | inhibition at 0.00025 µM (CFPAC; dosage 0.25000 nM): 1% | inhibition at 0.0005 µM (CFPAC; dosage 0.50000 nM): 1.5% | inhibition at 0.001 µM (CFPAC; dosage 1.00000 nM): 4.7% | inhibition at 0.002 µM (CFPAC; dosage 2.00000 nM): 12.8% | inhibition at 0.004 µM (CFPAC; dosage 4.00000 nM): 16.6% | inhibition at 31.25 pM (MCF7; MCF7, dosage 0.03125 nM): 0.3% | inhibition at 62.5 pM (MCF7; MCF7, dosage 0.06250 nM): 0.2% | inhibition at 0.000125 µM (MCF7; MCF7, dosage 0.12500 nM): 0% | inhibition at 0.00025 µM (MCF7; MCF7, dosage 0.25000 nM): 0.1% | inhibition at 0.0005 µM (MCF7; MCF7, dosage 0.50000 nM): 0% | inhibition at 0.001 µM (MCF7; MCF7, dosage 1.00000 nM): 1.2% | inhibition at 0.002 µM (MCF7; MCF7, dosage 2.00000 nM): 1.8% | inhibition at 0.004 µM (MCF7; MCF7, dosage 4.00000 nM): 2.2% | inhibition at 31.25 pM (LOX IMVI; dosage 0.03125 nM): 0% | inhibition at 62.5 pM (LOX IMVI; dosage 0.06250 nM): 1.4% | inhibition at 0.000125 µM (LOX IMVI; dosage 0.12500 nM): 1.5% | inhibition at 0.00025 µM (LOX IMVI; dosage 0.25000 nM): 3.1% | inhibition at 0.0005 µM (LOX IMVI; dosage 0.50000 nM): 1.8% | inhibition at 0.001 µM (LOX IMVI; dosage 1.00000 nM): 11.8% | inhibition at 0.002 µM (LOX IMVI; dosage 2.00000 nM): 10.7% | inhibition at 0.004 µM (LOX IMVI; dosage 4.00000 nM): 23.3% | inhibition at 31.25 pM (OVCAR-5; OVCAR-5, dosage 0.03125 nM): 0% | inhibition at 62.5 pM (OVCAR-5; OVCAR-5, dosage 0.06250 nM): 0.1% | inhibition at 0.000125 µM (OVCAR-5; OVCAR-5, dosage 0.12500 nM): 0.5% | inhibition at 0.00025 µM (OVCAR-5; OVCAR-5, dosage 0.25000 nM): 0.3% | inhibition at 0.0005 µM (OVCAR-5; OVCAR-5, dosage 0.50000 nM): 1.3% | inhibition at 0.001 µM (OVCAR-5; OVCAR-5, dosage 1.00000 nM): 2.5% | inhibition at 0.002 µM (OVCAR-5; OVCAR-5, dosage 2.00000 nM): 6.6% | inhibition at 0.004 µM (OVCAR-5; OVCAR-5, dosage 4.00000 nM): 29.3% | activity at 100 µM (SK-N-SH; 100 μM): 99 ± 1% | activity at 250 µM (SK-N-SH; 250 μM): 81 ± 1% | activity at 500 µM (SK-N-SH; 500 μM): 75 ± 9% | activity at 1000 µM (SK-N-SH; 1000 μM): 54 ± 2% | activity at 2000 µM (SK-N-SH; 2000 μM): 24 ± 1% | activity at 100 µM (IMR-32; IMR-32, 100 μM): 108% | activity at 250 µM (IMR-32; IMR-32, 250 μM): 104% | activity at 500 µM (IMR-32; IMR-32, 500 μM): 69 ± 7% | activity at 1000 µM (IMR-32; IMR-32, 1000 μM): 49% | activity at 2000 µM (IMR-32; IMR-32, 2000 μM): 21% | IC50 (NBAS-5; NBAS-5): 833 µM | activity at 100 µM (NBAS-5; NBAS-5, 100 μM, read-out: clones relative to media-treated control cultures): 85 ± 1% | activity at 250 µM (NBAS-5; NBAS-5, 250 μM, read-out: clones relative to media-treated control cultures): 78 ± 2% | activity at 500 µM (NBAS-5; NBAS-5, 500 μM, read-out: clones relative to media-treated control cultures): 68 ± 2% | activity at 1000 µM (NBAS-5; NBAS-5, 1000 μM, read-out: clones relative to media-treated control cultures): 53% | activity at 2000 µM (NBAS-5; NBAS-5, 2000 μM, read-out: clones relative to media-treated control cultures): 25% | IC50 (NBL-S): 701 µM | IC90 (NBL-S): 2000 µM
